Results as given in paper PMC3969223, “Characterization of WZ4003 and HTH-01-015 as selective inhibitors of the LKB1-tumour-suppressor-activated NUAK kinases” (Biochemical Journal, 2013).

Key:
[1] = system: ACC Ser79 phosphorylation; experiment: ACC Ser79 phosphorylation on EDTA-induced detachment, HEK-293; type: cell-based, human; details: HEK-293, 16 h
Description: (§1) HEK (human embryonic kidney)-293 and U2OS cells were cultured in DMEM (Dulbecco's modified Eagle's medium) supplemented with 10% FBS, 2 mM glutamine and 1×antibacterial/antimycotic solution. NUAK1^+/+ and NUAK1^−/− MEFs were cultured in DMEM supplemented with 10% (v/v) FBS and 2 mM glutamine, 1×antibacterial/antimycotic solution, 1% (v/v) non-essential amino acids and 1% (v/v) sodium pyruvate. HEK-293 Flp/In T-Rex cell lines were cultured in DMEM supplemented with 10% (v/v) FBS and 2 mM glutamine, 1×antibacterial/antimycotic solution, 100 μg/ml hygromycin and 15 μg/ml blasticidin. Supplementing the culture medium with 0.1 μg/ml doxycycline for 16–24 h induced protein expression in the HEK-293 Flp/In T-Rex cells. Cell counting was carried out using Invitrogen Countess following the manufacturer's protocol. A cell-detachment assay was carried out on HEK-293 cells using PBS-EDTA-based cell dissociation buffer as described previously. An inhibitor dose-dependence assay was carried out by treating the cells with various concentrations of the inhibitors as indicated in the Figure legends. The inhibitors were dissolved in DMSO and the total concentration of DMSO in the culture media never exceeded 1%. Transient transfections of HEK-293 cells were carried out using PEI [24]. Stable transfections were carried out in HEK-293 Flp/In T-Rex cells (Invitrogen) following the manufacturer's protocol. […]

[2] = system: MYPT1 Ser445 phosphorylation; experiment: MYPT1 Ser445 phosphorylation, HEK-293 Flp/In T-Rex overexpressing wild-type HA-NUAK1; type: cell-based, human; details: HEK-293 expressing wild-type NUAK1; 3–10 μM
Description: as §1

NUAK1+/+ MEFs = experiment: Wound-healing (migration) assay; type: cell-based, mouse; details: 10 μM
Description: MEFs were split and an approximately equal number of cells were loaded into the left and right chambers of the IBIDI Self-Insertion Inserts (catalogue number 80209). Each insert was placed in one well of a 12-well plate and the cells were seeded with or without treatment with the inhibitors. For the comparison of the migration properties of different MEFs on the same video, a single insert was used and an equal number of MEFs were counted and loaded on either chamber of the same insert. To study the effect of inhibitors on cell migration, wound-healing assays on MEFs were also carried out on separate inserts with or without treatment with a 10 μM concentration of WZ4003 or HTH-01-015. Inhibitors were added to the cells 1 h before the start of the migration assay. The experiments were carried out in triplicate. After overnight incubation at 37°C and 5% CO2, the insert was removed and the migration of cells into the 500 μm gap between the chambers was observed. The wound-gap healing properties of the cells were observed over a period of 15–20 h under a Nikon Eclipse Ti microscope with images taken every 2 min by a Photometrics cascade II CCD (charge-coupled device) camera using Nikon NIS Elements software.

MEFs = experiment: Cell proliferation assay (CellTiter 96 AQueous); type: cell-based, mouse; details: 10 μM, 5 days; same extent as NUAK1-knockout
Description: Cell proliferation assays were carried out colorimetrically in 96-well plates using the CellTiter 96® AQueous Non-Radioactive Cell Proliferation Assay kit (Promega) following the manufacturer's protocol. Initially, 2000 cells per well were seeded for U2OS cells and 3000 cells per well were seeded for MEFs. The proliferation assays were carried out over 5 days in the presence or absence of 10 μM HTH-01-015 or WZ4003.

MYPT1 phosphorylation = MYPT1 phosphorylation on detachment, MEFs; type: cell-based, mouse; details: 10 μM, 16 h
Description: Figure 7 NUAK1 inhibition suppresses cell proliferation (A) U2OS cells were incubated with or without 10 μM WZ4003 or 10 μM HTH-01-015 and a cell proliferation assay was carried out over 5 days in triplicate using the CellTiter 96® AQueous Non-Radioactive Cell Proliferation Assay kit (Promega) (as described in the Materials and methods section). U2OS cells in which NUAK1 has been knocked-down using two different shRNA hairpins were used in parallel as controls. The efficiency of the knock down of each shRNA is shown in top panel. SCR, control scrambled shRNA hairpin; shNUAK1 (1), first NUAK1 shRNA hairpin; shNUAK1 (2), second NUAK1 shRNA hairpin. (B) U2OS cells were treated with (+) or without (−) 10 μM WZ4003 or 10 μM HTH-01-015. After 16 h cell media was removed and cells were treated with EDTA-PBS-based cell dissociation buffer supplemented with 10 μM WZ4003, 10 μM HTH-01–015 or DMSO for 20 min. Cell detachment was induced with gentle tapping of the plates followed by gentle centrifugation at 70 g for 3 min. Cells were lysed immediately after removal of the media and immunoblotted for the detection of the indicated antibodies. (C and D) As above, except NUAK1^+/+ and NUAK1^−/− MEFs were used. Similar results were obtained in three separate experiments.

SMILES | Inhibition of ACC Ser79 phosphorylation induced by cell detachment (in words) [1] | Suppression of MYPT1 phosphorylation (in words) [2] | Cell migration in wound-healing assay (in words) (NUAK1+/+ MEFs) | Proliferation of MEFs (in words) (MEFs) | Suppression of MYPT1 phosphorylation in MEFs (in words) (MYPT1 phosphorylation)
Cc1nc(Nc2cnn(C3CCNCC3)c2)nc2c1N(C)C(=O)c1cc3ccccc3cc1N2C [HTH-01-015] | neither compound inhibited | markedly suppressed | markedly reduced cell migration | suppressed proliferation | to the same extent as NUAK1-knockout
CCC(=O)Nc1cccc(Oc2nc(Nc3ccc(N4CCN(C)CC4)cc3OC)ncc2Cl)c1 [WZ4003] | neither compound inhibited | markedly suppressed | markedly reduced cell migration | suppressed proliferation | to the same extent as NUAK1-knockout
